Source: US5760000A (University Technologies International,Inc., priority 1994, dated 1998)
“Also recorded” adds a separate entry of the source. Like-named read-outs stand apart in the source and are kept apart here.

Key:
[1] = biological target: GnRH binding sites (normal rat liver); test: GnRH in vitro binding to normal rat liver membrane preparation; settings: Labeled ligand 125I-[D-Lys6]-GnRH; 95% confidence interval in parentheses; read-out: Receptor Binding Activity (Kd, nM) Normal Rat Liver
Method: (§1) Cells were grown to confluence as previously described and harvested from the flasks by using a rubber policeman. The cells were washed in normal assay buffer (([…] Tris[hydroxymethyl] aminomethane[Tris]-HCl), containing 1 mM dithiothreitol and 0.5% BSA [fraction-V] (pH 7.6)) and precipitated by centrifugation at 500g for 5 minutes at 4° C.
(§2) The cleaned cells were homogenized in 50 ml of freshly prepared ice cold 25 mM sucrose in assay buffer containing 1 mM Phenylmethanesulphonyl fluoride and 5 mM Ethylenediaminetetraacetic acid, using a glass TEFLON (polytetra-fluoroethylene) homogenizer, followed by centrifugation at 100 ×g for 5 minutes (4° C.). The supernatant was further centrifuged at 17,000×g for 30 minutes at 4° C., and the pellet (crude membrane preparation) washed briefly and resuspended in the assay buffer (approximately 40-50 μg membrane protein or approximately 1 x 10^6 cell equivalent per 100 μl).
(§3) A similar protocol was used to prepare the membrane from fresh rat and frozen human postmortem liver. In all experiments the final membrane preparation was used in the radioreceptor assay within 45 minutes.
(§4) For protein determination, aliquots of crude membrane preparations were washed twice with double distilled water by centrifugation (25,000 ×g) and assayed for protein content, using BSA as the standard. The binding assay was carried out at 4° C.
(§5) The displacement curves were fitted for both single and two classes of binding sites by computer calculated lines, as described.

[2] = system: HuH-7 cells; test: 3H-thymidine uptake in HuH-7 cells; format: cell-based, human; settings: 10^-7 M, time-related
Method: (§6) […] 3H-thymidine (Amersham TRK.120, 102 mCi/mg) was added to each well and was incubated at 37° C. for 4 hours. The media containing unabsorbed 3H-thymidine was aspired off and the cells were washed twice with ice cold phosphate buffered saline (PBS). The cells were then fixed with 5% trichloro acetic acid (TCA) for 20 minutes and washed twice with double distilled water. The fixed cells were solubilized with 0.2 ml NCS tissue solubilizer (Amersham) and counted for radioactivity using a liquid scintillation counter (50% efficiency).

[3] = system: HuH-7 cells; test: HuH-7 cell proliferation; format: cell-based, human; settings: single administration at 10^-7 M, six days in culture
Method: (§7) HepG2 or HuH-7 cells were maintained in 75-cm^2 flasks at 37° C. under a humidified atmosphere of 5% CO2 in modified Minimum Essential Medium (Gibco-BRL) supplemented with 10% fetal bovine serum, 200mM 1-Glutamine (1%), Penicillin (1000 IU/ml), streptomycin (100 μg/ml) and sodium bicarbonate (0.15%). Cells grown to confluence were harvested following mild trypsinization and wash (twice by slow centrifugation; 400 g for 10 minutes) in normal culture medium.
(§8) Approximately 50,000 cells in 1.0 ml culture media were plated in 24 deep well plates (Flacon). This time was considered day -1. Cells were allowed to grow for one day. The growing cells were then treated with various hormones (at day 0) prepared aseptically in culture media immediately prior to addition. The final volume was maintained at 1 ml. The plates were then incubated at 37° C. for a period of 4 to 6 days, as described above.
(§9) Cells in each well were harvested by removal of culture media and incubation with 0.5 ml 0.25% trypsin and 1.75 mM EDTA for 30 minutes at 37° C. Cells were then transferred into 1.5 ml microfuge tubes and centrifuged at 100g for 10 minutes. The supernatant was removed and the pellet was resuspended in a final volume of 200 μl of culture media containing 10% trypan blue.
Cells were then counted using a hemocytometer. […]

[4] = system: HepG2 cells; test: 3H-thymidine uptake in HepG2 cells; format: cell-based, human
Method: as §6
The effect of GnRH-related peptides on ^3 H-thymidine incorporation was tested to assess changes in DNA synthesis of HepG2 cells (FIGS. 7A and 7B). Methods used were as previous described.

[5] = system: HepG2 cells; test: HepG2 cell proliferation (cell counting); format: cell-based
Method: as §7, §8, §9
Cells were then counted using a hemocytometer. The average cell mortality was less than 5.0% and was not different among different treatment groups. Each value represents the mean and standard error of several experiments (n>3), each carried out in quadruplicate incubations at each time point and hormone concentration.
(§10) The potency of various GnRH-related peptides in terms of binding (equilibrium dissociation constant; kd) and growth suppression activity in the human hepatocarcinoma derived cell line HepG2 was studied. […] Data analysis was performed as described.
The effect of GnRH-related peptides on the proliferation of the human hepatoma derived cell line HepG2 was studied. Values (mean ± SEM) represent the percent change with respect to initial cell number at day 0 over a period of six days in culture.
The dose response curves were analyzed by a computerized, four parameter curve fitting program (ALLFIT) as described. The result of time-related response on cell proliferation was analyzed using a two-way ANOVA with multiple comparison means of using computerized statistical package (SYSTAT).

[6] = biological target: GnRH receptor (HepG2 membrane preparation); test: GnRH in vitro binding to HepG2 membrane preparation (radioreceptor assay); design: species or system human; settings: Labeled ligand 125I-[D-Lys6]-GnRH; 95% confidence interval in parentheses; 4° C.
Method: as §1, §2, §4, §5, §10
(§11) Homologous displacement of GnRH-related peptides in membrane homogenates prepared from HepG2 cells and non-cancerous postmortem human liver tissue was studied. Values (mean ± SEM) represent specific binding [B/T, bound over total, in %] determined by subtraction of non-saturable binding in the presence of excess peptides (10^-5 M). Results were obtained from 5 to 7 separated experiments, each carried out in triplicate. The binding data were analyzed by computerized Scatchard analysis (LIGAND) according to Munson and Rodbard.

[7] = biological target: GnRH binding sites (normal human liver); test: GnRH in vitro binding to non-cancerous postmortem human liver membrane preparation; settings: Labeled ligand 125I-[D-Lys6]-GnRH; 95% confidence interval in parentheses; read-out: Receptor Binding Activity (Kd, nM) Normal Human Liver
Method: as §1, §2, §3, §4, §5, §11

CC(C)C[C@H](NC(=O)[C@@H](CCCCN)NC(=O)[C@H](Cc1ccc(O)cc1)NC(=O)[C@H](CO)NC(=O)[C@H](Cc1c[nH]c2ccccc12)NC(=O)[C@H](Cc1c[nH]cn1)NC(=O)[C@@H]1CCC(=O)N1)C(=O)N[C@@H](CCCNC(=N)N)C(=O)N1CCC[C@H]1C(=O)NCC(N)=O [[D-Lys^6]-GnRH, pGlu-His-Trp-Ser-Tyr-DLys-Leu-Arg-Pro-Gly-NH2]
Kd [1]: 769 nM | 3H-thymidine incorporation in HuH-7 cells [2]: blocked further ^3 H-thymidine incorporation above day 1 level | Effect on HuH-7 cell proliferation [3]: significantly suppressed; also recorded: totally inhibited | 3H-thymidine incorporation in HepG2 cells ([4]; 10^-7 M, over 4 days of incubation): blocked further ^3 H-thymidine incorporation above the day 1 level | ED50, inhibition of DNA synthesis (3H-thymidine incorporation) in HepG2 cells ([4]; after 72 hours in culture): 0.18 ± 0.03 nM | ED50, inhibition of DNA synthesis (3H-thymidine incorporation) in HepG2 cells ([4]; after 96 hours in culture): 0.14 ± 0.02 nM | Suppression of HepG2 growth ED50 [5]: 2.00 nM | HepG2 doubling time ([5]; 10 nM, calculated over 4 days of growth): 65 ± 4.9 h | HepG2 doubling time ([5]; 100 nM, calculated over 4 days of growth): 77 ± 6.7 h | HepG2 doubling time ([5]; 1000 nM, growth phase, over 4 days of growth): 105 ± 10.0 h | Effect on HepG2 cell proliferation, repeated administration ([5]; 10^-7 M every two days, six days in culture): significantly suppressed | Reversal of HepG2 growth suppression after removing the peptide or adding GnRH antagonist ([5]; after three days of treatment): can not be reversed; also recorded: cannot be reversed | Suppression of HepG2 growth ED50 ([5]; calculated at day 4 of growth): 2.00 ± 0.9 nM | Effect on HepG2 cell proliferation ([5]; single administration at 10^-7 M, six days in culture): significantly suppressed | Kd [6]: 9.17 nM | Kd [7]: 3300 nM
